In ChEMBL document CHEMBL1151292, “Antineoplastic activity and cytotoxicity of flavones, isoflavones, and flavanones” (1979) one finds Activity and EC50 data, which are given here for 19 compounds.

Molecules are shown by their SMILES. ≈ marks a conversion by molar mass, not a printed value. Calls of active or inactive are those of the source. Unless noted, the rule behind the calls is not given here.

One experiment relates to CCRF S-180. The experiment is described as follows: In vivo antitumor activity against mouse S180 cells. Type of experiment: functional, organism-based.
Another experiment deals with KB. Nature of the experiment: Cytotoxicity against human KB cells. The class given is functional. Particulars: read-out: ED50 (the source's name).
The next experiment deals with FV. Nature of the experiment: In vivo antitumor activity against mouse FV cells. The class given is functional, organism-based.
The test system of another experiment is L1210. Nature of the experiment: In vivo antitumor activity against mouse L1210 cells. The class given is functional, organism-based.
Another experiment relates to Walker 256. The experiment is described as follows: In vivo antitumor activity against rat Walker 256 cells. The class given is functional, organism-based.
The next experiment concerns CA-755. The experiment is described as follows: In vivo antitumor activity against mouse CA-755 cells. The class given is functional, organism-based.
Experiment [1] concerns Lewis lung carcinoma cell line. The experiment is described as follows: In vivo antitumor activity against mouse LLC cells. The class given is functional, organism-based.
For the next experiment, the system named is P388. Nature of the experiment: In vivo antitumor activity against mouse P388 cells. The class given is functional, organism-based.

For the compound `COc1ccc(-c2coc3cc(OC)c(OC)c(OC)c3c2=O)cc1`, the outcome with CCRF S-180 was inactive. Also, in the experiment on KB, the EC50 came out at 34 µg/mL (≈ 99.3 µM). Moreover, the outcome in the experiment with FV was Active.

With `COc1cc(OC)c(-c2oc3ccccc3c(=O)c2O)cc1OC`, the outcome in the experiment with CCRF S-180, in the experiment with L1210 and in the experiment on FV was inactive. The EC50 in the experiment on KB came to 5 µg/mL (≈ 15.2 µM).

Consider `CCOc1ccc(-c2coc3cc(C)c(OCC)c(C)c3c2=O)cc1`, for which the outcome with FV was inactive.

Regarding `C[C@@H]1O[C@@H](OC[C@H]2O[C@@H](Oc3c(-c4ccc(O)c(O)c4)oc4cc(O)cc(O)c4c3=O)[C@H](O)[C@@H](O)[C@@H]2O)[C@H](O)[C@H](O)[C@H]1O`, the result (in the experiment with CCRF S-180; in the experiment with L1210; in the experiment on CA-755; in experiment [1]) was inactive. Moreover, the result in the experiment with Walker 256 was Active.

For the compound `COc1ccc(OC)c(-c2cc(=O)c3c(OC)c(OC)c(OC)c(OC)c3o2)c1`, the outcome in the experiment with CCRF S-180 was inactive. Besides, the EC50 in the experiment with KB worked out at 4 µg/mL (≈ 9.94 µM). Besides, the outcome in the experiment on FV was Active.

For `COc1ccc(-c2oc3cc(O)c(OC)c(O)c3c(=O)c2OC)cc1O` [CENTAUREIDIN], the EC50 with KB came out at 0.4 µg/mL (≈ 1.11 µM). Further, the result in the experiment on P388 was inactive.

For `Nc1c(-c2ccccc2)oc2ccc(Cl)cc2c1=O`, the result in the experiment on CCRF S-180, with L1210 and with FV was inactive. In the experiment with KB, the EC50 is above 100 µg/mL.

Regarding `COc1cc2occ(-c3ccc(O)cc3)c(=O)c2c(OC)c1O`, the result in the experiment with FV was inactive.

For the compound `O=C1CC(c2ccccc2)Oc2ccccc21` (stereo not drawn), the result in the experiment on CCRF S-180, in the experiment with L1210, in the experiment on CA-755 and in the experiment on FV was inactive.

Turning to `O=C1c2cc(O)c(O)cc2OC(c2ccc(O)c(O)c2)C1O` (stereo not drawn), the result with CCRF S-180, in the experiment with L1210 and with P388 was inactive.

As for `O=c1cc(-c2ccccc2)oc2cccc(O)c12` [5-HYDROXYFLAVONE], the result (in the experiment with CCRF S-180; in experiment [1]) was inactive. The result in the experiment with Walker 256 was Active. For the same compound, the EC50 in the experiment with KB was determined as 20 µg/mL (≈ 83.9 µM).

Take `O=c1c(O)c(-c2c(O)cccc2O)oc2ccccc12`: the outcome in the experiment with CCRF S-180, in the experiment with L1210 and in the experiment on FV was inactive. For the same compound, in the experiment on KB, the EC50 was above 100 µg/mL.

Turning to `COc1ccc(-c2coc3c(OC)c(OC)c(OC)c(OC)c3c2=O)cc1`, the result in the experiment with FV was Active.

`COc1ccc(-c2oc3cc(O)cc(O)c3c(=O)c2OC)cc1O`: in the experiment on KB, the EC50 amounted to 2 µg/mL (≈ 6.06 µM). Besides, the result with P388 was inactive.

Consider `O=c1cc(-c2ccccc2)oc2ccc(O)cc12` [6-HYDROXYFLAVONE], for which the outcome in the experiment on CCRF S-180 and with Walker 256 was inactive. Moreover, the EC50 in the experiment on KB is 18 µg/mL (≈ 75.6 µM). Also, the result in experiment [1] was Active.

`COc1ccc2c(=O)c(C)c(-c3ccccc3)oc2c1`: the result with CCRF S-180 and with L1210 was inactive. Moreover, the EC50 in the experiment on KB is 43 µg/mL (≈ 161 µM). Further, in the experiment on FV, the outcome was Active.

As to `COc1ccc(-c2cc(=O)c3cc(OC)c(OC)c(OC)c3o2)cc1`, the result (with CCRF S-180; in the experiment with Walker 256; in the experiment with FV; in experiment [1]) was inactive. The EC50 with KB stood at 5 µg/mL (≈ 14.6 µM).

For the compound `COc1cc(OC)cc(-c2cc(=O)c3c(OC)c(OC)c(OC)c(OC)c3o2)c1`, the outcome (in the experiment with CCRF S-180; in experiment [1]) was inactive. Besides, in the experiment on KB, the EC50 was 3 µg/mL (≈ 7.46 µM). Also, the result in the experiment on FV was Active.

Consider `COc1cc2c(=O)cc(-c3ccc(O)cc3)oc2c(OC)c1OC`, for which the outcome (in the experiment with CCRF S-180; in experiment [1]) was inactive. The result with Walker 256 and in the experiment on FV was Active. Moreover, in the experiment on KB, the EC50 was found to be 0.7 µg/mL (≈ 2.13 µM).
